Patent publication US7179816B2, “Chemical derivatives and their application as antitelomerase agents” (Aventis Pharma S.A., priority 2001, dated 2007)

Experiments:
[1] = tested on: human telomerase (extract of HL60 cells enriched in telomerase activity); assay: TRAP assay of telomerase activity (extension of oligonucleotide TS, PCR amplification); format: biochemical; conditions: compounds at 10, 1, 0.1 and 0.01 μg/ml
Procedure: The antitelomerase biological activity is determined by the following experimental protocol:
Preparation of the Extract Enriched in Human Telomerase Ectivity:
The leukemia line HL60 is obtained from ATCC (American Type Culture Collection, Rockville USA). The cells are cultured in suspension in RPMI 1640 medium containing L-Glutamine at 2 mM, Penicillin 200 U/ml, streptomycin 200 μg/ml, gentamycin 50 μg/ml and supplemented with 10% heat-inactivated fetal calf serum.
An aliquot of 10^5 cells is centrifuged at 3000×G and the supernatant discarded. […]
The samples are then analyzed by electrophoresis on 12% acrylamide gel in a 1×TBE buffer for 1 hour at a voltage of 200 volts, with the aid of a Novex electrophoresis system. […]
The analysis and the quantification of the reaction products are carried out with the aid of an InstantImager apparatus (Pacard).
For each compound concentration tested, the results are expressed as percentage inhibition of the reaction and calculated from the untreated enzymatic control and from the enzyme-free sample (blank) according to the following formula: (Compound Value−blank value/enzymatic control value−blank value)×100. […]
A compound is considered to be active as an antitelomerase agent when the quantity inhibiting 50% of the telomerase reaction is less than 5 μM.

[2] = tested on: G-quadruplex of oligonucleotide GGGTTAGGGTTAGGGTTAGGG (3.5 repeats of the human telomeric motif); assay: G-quadruplex stabilisation, fluorescence Tm of FAM+DABCYL oligonucleotide; format: binding; conditions: test product 1 μM, oligonucleotide 0.2 μM, 0.1 M LiCl, 10 mM cacodylate buffer pH 7.6; reference Tm 44° C.
From the text: The G-quadruplex stabilizing activity may be determined by a method using the formation of a complex with fluorescein, as described below.
All the oligonucleotides, modified or otherwise, were synthesized by Eurogentec SA, Seraing, Belgium. The oligonucleotide FAM+DABCYL carries the catalog reference OL-0371–0802. It has the sequence: […] (SEQ ID NO:1) corresponding to 3.5 repeats of the human telomeric motif (strand rich in G). The fluorescein is chemically attached to the 5′ end, and the DABCYL to the 3′ end, as described by Eurogentec. The concentration of the samples is checked by spectrophotometry, recording the absorbance spectrum between 220 and 700 nm and using the molar extinction coefficient provided by the supplier. […]
All the measurements of fluorescence were carried out on a Spex Fluorolog DM1B apparatus, using an excitation line width of 1.8 nm and an emission line width of 4.5 nm. […] The oligonucleotide alone was analyzed at 20, 30, 40, 50, 60, 70 and 80° C. The emission spectra are recorded using an excitation wavelength of 470 nm. The excitation spectra are recorded using either 515 nm or 588 nm as emission wavelength. […] A high extinction (80–90%) of the fluorescence of fluorescein at room temperature is observed, in agreement with an intramolecular folding of the oligonucleotide at 20° C. in the form of a G-quadruplex. […]

For “N6-[(6-(3-dimethylaminopropylamino)-4-diethylamino-[1,3,5]triazin-3-yl]-2-methylquinoline-4,6-diamine [Example 2-1]”, the IC50 [1] was 900 nM and the “G-4 ΔTm” value [2] was 7.9 °C.

With `CSc1nc(NCCN(C)C)nc(Nc2ccc3nc(C)cc(N)c3c2)n1` [Example 1-1, N6-[6-(2-dimethylaminoethylamino)-4-methylsulfanyl-[1,3,5]triazin-2-yl]-2-methylquinoline-4,6-diamine] the IC50 [1] was 790 nM and the “G-4 ΔTm” value [2] was 6 °C.
